According to US20110135671A1, “PURINE DERIVATIVES FOR USE IN THE TREATMENT OF ALLERGIC, INFLAMMATORY AND INFECTIOUS DISEASES” (GLAXOSMITHKLINE LLC, priority 2008, published 2011):
Structures can show the parent of a compound that is named as a salt.

Experiments:
Interferon-α [1] = test: Induction of Interferon-α using fresh human PBMCs; assay type: cell-based; details: PBMC, 24 hr, relative to 2 μM resiquimod control, read-out: mean pEC50 for induction of IFN-α (converted)
Procedure: (§1) Assay for the Induction of Interferon-α and TNF-α Using Fresh Human Peripheral Blood Mononuclear Cells (PBMCs)
(§2) Compounds were dissolved and serially diluted in DMSO to give 100× the required concentration range using a Biomek 2000. 1 ul of test compound was transferred into 96-well tissue culture plates using a Biomek FX. Each compound was assayed in duplicate for each donor. Each plate contained a dilution series of the TLR7/8 agonist resiquimod as standard and Column 11 contained 1 μl of 200 μM resiquimod (giving a 2 μM final concentration, used to define the approximate maximal response to resiquimod).
(§3) Blood samples from two human donors were collected into sodium heparin (10 U/ml). 25 ml volumes of whole blood were overlaid onto 15 mls Histopaque in Leucosep tubes which were centrifuged at 800 g for 20 min and the band at the plasma/histopaque interface carefully removed. The collected cells were centrifuged at 2500 rpm for 10 min and the pellet resuspended in 10 ml of media (RPMI 1640 (Low endotoxin) supplemented with 10% v/v foetal calf serum (FCS, low endotoxin) 100 U/ml penicillin G, 100 μg/ml streptomycin, 10 mM L-glutamine and 1× non-essential amino acids). A 1:20 dilution of the cells was prepared using trypan blue & the cells counted using a haemocytometer. The PBMCs were diluted to give a final concentration of 2×10^6/ml and 100 ul of this cells suspension was added to wells containing 1 μl of diluted test compound.
(§4) The cell preparations were incubated for 24 hr (37° C., 95% air, 5% CO2) after which a sample of the supernatant was removed using the Biomek FX and assayed for both IFN-α and TNF-α using the MSD (Mesoscale Discovery) electrochemiluminescence assay platform. The IFN-α assay was carried out similarly to that described above. The TNF-α assay was carried out as per kit instructions (Cat No K111 BHB).
(§5) Cytokine released was expressed as a percentage of the 2 μM resiquimod control (column 11). This percentage was plotted against compound concentration and the pEC50 for the response determined by non-linear least squares curve fitting. For the IFN-α responses generally a 4 parameter logistic model was selected. For the TNF responses where a clear maximum response was obtained (i.e. a well defined plateau in the response was observed) then a 4 parameter model was generally used. If the upper asymptote of the curve wasn't well defined then the curve fitting was generally constrained to a maximal response of 100% (i.e., to the response to 2 μM resiquimod) or to the response of the highest concentration tested if this was greater than the resiquimod response. Some curves were bell shaped for one or both cytokines and the cytokine data on the down slope of the bell shaped response (i.e. concentrations above those giving the maximal response) were generally excluded from the fit, usually with the exception of the concentration immediately above the peak response. Curve fitting thus concentrated on the up slope of the dose response curve.

Interferon-α [2] = test: Induction of Interferon-α using cryopreserved human PBMCs; assay type: cell-based; details: PBMC, 24 h, normalised to 1 uM resiquimod, read-out: mean pEC50 for induction of Interferon-α (converted)
Procedure: Assay for the Induction of Interferon-α using Cryopreserved Human Peripheral Blood Mononuclear Cells (PBMCs)
Compounds were dissolved in DMSO. Serial 2-fold dilutions with DMSO were prepared and 0.25 μl dispensed into 384-well clear Greiner polypropylene plates.
Blood samples of up to 200 ml were obtained from healthy human donors. Whole blood in 25 ml volumes was overlaid onto 15 ml Ficoll gradients in Leucosep tubes, and centrifuged at 1000 g for 20 min. Cells in the band at the plasma/histopaque interface were carefully removed and washed twice with PBS (centrifuged at 400 g for 5 min to harvest). The final pellet was resuspended in freezing medium (90% Heat-inactivated serum, 10% DMSO) to a cell concentration of 4×10^7 cells/ml. The resuspended cells were then cryopreserved (frozen) using a rate controlled freezer, and stored at −140° C. for up to 4 months.
Incubation and Assay for Interferon-α
Immediately prior to assay, vials of cryopreserved (frozen) PBMCs were thawed rapidly in a water bath at 37° C. A 1:10 dilution of the cells in trypan blue was prepared and counted. The PBMCs were then diluted in growth media [RPMI 1640 containing 10% fetal calf serum (invitrogen), Penicillin+Streptavidin (Gibco cat. # 25030-024, 1:50), L-Glutamine 2 mM, and 1000 units/ml recombinant human IFN-gamma (Preprotech catalogue #300-02)] to a density of 1×10^6 cells/ml, and 50 ul/well dispensed to 384-well clear Greiner polypropylene plates containing 0.25 μl DMSO or test compound in 0.25 μl DMSO. […] Plates were incubated for 24 h at 37° C. in 5% CO2.
A multi-isoform immunoassay was used to quantify IFN-α in PBMC supernatants. Rabbit polyclonal antibody against human IFN-α (catalogue number 31101, Stratech Scientific) was diluted 1:10000 in assay buffer (RPMI 1640 containing 10% fetal calf serum, Invitrogen) and 20 μl was added to each well of an MSD (Meso-Scale Discovery) single small-spot 384-well GAR (goat anti-rabbit antibody coated) plate. The plate was incubated for 1 h at room temperature with vigorous shaking. Following three washes with PBS, 20 μl of cell supernatant were added to each well of the plate. The plate was then incubated for 1 h at room temperature with vigorous shaking. A pair of monoclonal antibodies to IFN-α (catalogue numbers 21100 and 21112, Stratech Scientific) were labelled with sulfo-TAG (MSD), diluted 1:1000 in assay buffer and 20 μl added to each well of the plate. The plate was further incubated for 1 h at room temperature with vigorous shaking. Following three washes with PBS, 30 μl of ×2 T buffer (MSD) was added to each well and the plate was read on an MSD Sector 6000 plate reader.
Data were normalised to internal plate controls of 1 uM resiquimod (n=16) and DMSO (n=16). pEC50 values were derived by 4-parameter curve fit with IRLS in ActivityBase, from 11-point, two-fold serial dilution of test compounds.

TNF-α = test: Induction of TNF-α using fresh human PBMCs; assay type: cell-based; details: PBMC, 24 hr, relative to 2 μM resiquimod control, read-out: mean pEC50 for induction of TNF-α (converted)
Procedure: as §1, §2, §3, §4, §5

Interferon-α [3] = test: Induction of Interferon-α following intranasal dosing in the mouse; assay type: in vivo; details: female BALB/c mice, 2 hours after dosing, ELISA
Procedure: Assay for the Induction of Interferon-α Following Intranasal Dosing in the Mouse.
Example 46 was dissolved in 0.2% Tween 80 in saline and administered intranasally (5 μl in total between the nostrils) to female BALB/c mice (n=6) under general anaesthesia. Animals were euthanased 2 hours after dosing and a terminal blood sample was taken and serum levels of Interferon-α was measured using an ELISA assay. Mean serum levels of Interferon-α of 1253 pg/ml were measured. No Interferon-α was detected in vehicle treated controls.

IL-5 = test: Allergen-driven cytokine assay using fresh human PBMCs from atopic volunteers (IL-5); assay type: cell-based; details: at 0.04 μM; atopic donor PBMCs with Timothy grass antigen, up to 6 days
Procedure: (§6) Allergen-Driven Cytokine Assay Using Fresh Human Peripheral Blood Mononuclear Cells (PBMCs) from Atopic Volunteers
(§7) An assay based on co-culture of atopic human donor derived peripheral blood mononuclear cells (PBMCs) with allergen and test compounds was developed. After 5-6 days culture, cell supernatants were assayed for a range of cytokines.
(§8) Compounds were dissolved in DMSO, then serially diluted in growth medium (RPMI 1640 medium supplemented with 100 U/ml penicillin G, 100 μg/ml streptomycin, 10 mM L-glutamine) to give 4× the required concentration range in the presence of 0.04% DMSO. Each compound was assayed in triplicate at all concentrations.
(§9) Defibrinated human blood from volunteers known to be allergic to Timothy grass was centrifuged at 2500 rpm for 15 minutes. The upper layer of serum was collected and heat-inactivated at 56° C. for 30 minutes (HI-autologous serum). The lower layer of cells was resuspended in 50 ml PBS (+Ca +Mg), 25 ml diluted blood were overlaid onto 20 ml Lymphoprep in 50 ml tubes then centrifuged at 2500 rpm for 20 minutes at RT. The band at the serum/Lymphoprep interface was carefully removed. […]
(§10) Plates were incubated at 37° C. in 5% CO2 for up to 6 days. […] Cytokines and chemokines in supernatants were detected using Meso Scale Discovery 10 spot plates for Human TH1/Th2 cytokines.

IL-13 = test: Allergen-driven cytokine assay using fresh human PBMCs from atopic volunteers (IL-13); assay type: cell-based; details: at 0.2 μM; atopic donor PBMCs with Timothy grass antigen, up to 6 days
Procedure: as §6, §7, §8, §9, §10

EC50 (Interferon-α [1])	EC50 (TNF-α)	SMILES	EC50 (Interferon-α [2])	mean serum levels of Interferon-α (Interferon-α [3])	reduction of IL-5 production compared to the allergen control (IL-5)	reduction of IL-13 production compared to the allergen control (IL-13)
< 0.1 µM	> 3.16 µM	CCCCOc1nc(N)c2[nH]c(=O)n(CCN3CCNCC3)c2n1 [Example 1, 6-Amino-2-(butyloxy)-9-[2-(1-piperazinyl)ethyl]-7,9-dihydro-8H-purin-8-one dihydrochloride salt]	< 3.16 µM	–	–	–
< 0.1 µM	> 3.16 µM	CCCCOc1nc(N)c2[nH]c(=O)n(CCCN3CCN(C)CC3)c2n1 [Example 6, 6-Amino-2-(butyloxy)-9-[3-(4-methyl-1-piperazinyl)propyl]-7,9-dihydro-8H-purin-8-one]	< 3.16 µM	–	–	–
< 0.1 µM	> 3.16 µM	CCCCOc1nc(N)c2[nH]c(=O)n(CCCCN3CCN(C)CC3)c2n1 [Example 26, 6-Amino-2-(butyloxy)-9-[4-(4-methyl-1-piperazinyl)butyl]-7,9-dihydro-8H-burin-8-one]	< 3.16 µM	–	–	–
< 0.01 µM	> 1 µM	CCCCOc1nc(N)c2[nH]c(=O)n(CCCCN3CCN(CC)CC3)c2n1 [Example 27, 6-Amino-2-(butyloxy)-9-[4-(4-ethyl-1-piperazinyl)butyl]-7,9-dihydro-8H-burin-8-one]	< 3.16 µM	–	–	–
< 0.01 µM	> 1 µM	CCCCOc1nc(N)c2[nH]c(=O)n(CCCCN3CCN(C(C)C)CC3)c2n1 [Example 29, 6-Amino-2-(butyloxy)-9-{4-[4-(1-methylethyl)-1-piperazinyl]butyl}-7,9-dihydro-8H-purin-8-one]	< 3.16 µM	–	–	–
< 0.01 µM	> 1 µM	CCCCOc1nc(N)c2[nH]c(=O)n(CCCCN3CCN(C(C)(C)C)CC3)c2n1 [Example 32, 6-Amino-2-(butyloxy)-9-{4-[4-(1,1-dimethylethyl)-1-piperazinyl]butyl}-7,9-dihydro-8H-purin-8-one]	< 3.16 µM	–	–	–
< 0.1 µM	> 3.16 µM	CCCCNc1nc(N)c2[nH]c(=O)n(CCCCN3CCN(C(C)(C)C)CC3)c2n1 [Example 41, 6-Amino-2-(butylamino)-9-{4-[4-(1,1-dimethylethyl)-1-piperazinyl]butyl}-7,9-dihydro-8H-purin-8-one]	< 3.16 µM	–	–	–
< 0.001 µM	> 1 µM	CCCCOc1nc(N)c2[nH]c(=O)n(CCCCCN3CCN(C)CC3)c2n1 [Example 46, 6-Amino-2-(butyloxy)-9-[5-(4-methyl-1-piperazinyl)pentyl]-7,9-dihydro-8H-purin-8-one]	< 3.16 µM	1253 pg/mL	–	–
< 0.01 µM	> 1 µM	CCCCOc1nc(N)c2[nH]c(=O)n(CCCCCN3CCN(C(C)C)CC3)c2n1 [Example 48, 6-Amino-2-(butyloxy)-9-{5-[4-(1-methylethyl)-1-piperazinyl]pentyl}-7,9-dihydro-8H-purin-8-one]	< 3.16 µM	–	–	–
–	–	CCC[C@H](C)Oc1nc(N)c2[nH]c(=O)n(CCCCCN3CCN(C(C)C)CC3)c2n1 [Example 52, 6-Amino-2-{[(1S)-1-methylbutyl]oxy}-9-{5-[4-(1-methylethyl)-1-piperazinyl]pentyl}-7,9-dihydro-8H-purin-8-one]	< 3.16 µM	–	> 50%	> 50%
< 0.01 µM	> 1 µM	CCCCOc1nc(N)c2[nH]c(=O)n(CCCCCCN3CCNCC3)c2n1 [Example 54, 6-Amino-2-(butyloxy)-9-[6-(1-piperazinyl)hexyl]-7,9-dihydro-8H-purin-8-one]	< 3.16 µM	–	–	–
< 0.001 µM	> 1 µM	CCCCOc1nc(N)c2[nH]c(=O)n(CCCCCCN3CCN(C(C)(C)C)CC3)c2n1 [Example 57, 6-Amino-2-(butyloxy)-9-{6-[4-(1,1-dimethylethyl)-1-piperazinyl]hexyl}-7,9-dihydro-8H-purin-8-one]	< 3.16 µM	–	–	–
